Literature values in patent US12667557B2, “Method for treating EGFR-TKI-resistant non-small cell lung cancer by administration of anti-HER3 antibody-drug conjugate” (priority 2017, dated 2026).

Target: T1, topoisomerase I (Homo sapiens, UniProt P11387)
T1 sequence (P11387 1-765): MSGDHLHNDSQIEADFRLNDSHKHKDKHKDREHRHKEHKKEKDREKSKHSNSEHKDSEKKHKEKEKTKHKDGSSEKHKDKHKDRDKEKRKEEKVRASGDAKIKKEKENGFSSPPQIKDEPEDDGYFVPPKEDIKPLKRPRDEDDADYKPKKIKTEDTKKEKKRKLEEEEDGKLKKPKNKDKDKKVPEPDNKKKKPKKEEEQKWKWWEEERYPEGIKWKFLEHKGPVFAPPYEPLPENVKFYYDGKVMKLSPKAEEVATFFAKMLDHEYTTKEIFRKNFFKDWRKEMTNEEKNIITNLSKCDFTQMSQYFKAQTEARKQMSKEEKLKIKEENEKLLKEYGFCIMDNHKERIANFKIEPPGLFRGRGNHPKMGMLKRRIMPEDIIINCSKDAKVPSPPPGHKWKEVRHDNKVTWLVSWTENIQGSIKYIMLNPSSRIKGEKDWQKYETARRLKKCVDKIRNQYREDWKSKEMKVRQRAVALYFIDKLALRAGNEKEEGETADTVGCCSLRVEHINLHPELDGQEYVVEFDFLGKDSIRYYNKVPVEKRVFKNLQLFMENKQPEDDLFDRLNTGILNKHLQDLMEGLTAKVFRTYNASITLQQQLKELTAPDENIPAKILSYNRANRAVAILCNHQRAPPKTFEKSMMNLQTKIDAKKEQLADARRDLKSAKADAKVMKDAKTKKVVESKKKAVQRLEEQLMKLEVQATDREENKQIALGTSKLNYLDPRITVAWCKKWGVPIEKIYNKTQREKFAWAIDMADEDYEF
Settings: Ogitani Y. et al., Clinical Cancer Research, 2016; 22(20):5097-5108; cited from earlier work

CC[C@@]1(O)C(=O)OCc2c1cc1n(c2=O)Cc2c-1nc1cc(F)c(C)c3c1c2[C@@H](NC(=O)CO)CC3
topoisomerase I inhibitory activity: confirmed to have a topoisomerase I inhibitory activity
